Experiments:
Format in all cases: functional
Aedes aegypti [1] = assay: Insecticidal activity against Aedes aegypti assessed as lethal compound dose per mosquito measured after 24 hr post topical application
Planorbella trivolvis = assay: Molluscicidal activity against Planorbella trivolvis
Aedes aegypti [2] = assay: Insecticidal activity against Aedes aegypti assessed as insect mortality at 2 ppm
Pomacea canaliculata [3] = assay: Molluscicidal activity against Pomacea canaliculata assessed as mortality at 200 uM after 24 hr
Pomacea canaliculata [4] = assay: Molluscicidal activity against Pomacea canaliculata
Pomacea canaliculata [5] = assay: Molluscicidal activity against Pomacea canaliculata assessed as mortality at 75 uM after 24 hr

O=C(/C=C/C=C/c1ccc2c(c1)OCO2)N1CCCCC1 [PIPERINE] gave an LD50 (Aedes aegypti [1]) of 8.13 µg.

With C=CCCCCCCCCC(=O)N1CCCCC1CC (stereo unspecified) [2-ethyl-1-undec-10-enoyl-piperidine] the LD50 (Aedes aegypti [1]) was 0.8 µg.

In the case of C/C=C\C#CC#C/C=C\C(=O)OC [(2Z,8Z)-MATRICARIA ACID METHYL ESTER], the LC50 (Planorbella trivolvis) is reported as 24 µM.

O=C(/C=C/C=C/CCCCCCc1ccc2c(c1)OCO2)N1CCCCC1 was tested, and the mortality at 2 ppm (Aedes aegypti [2]) was 20%.

Compound CC1OC(C)OC(C)OC(C)O1 (stereo unspecified) [METALDEHYDE] has a mortality at 200 µM (Pomacea canaliculata [3]) of 100% and an LC50 (Pomacea canaliculata [4]) of 30 µM.

COC(=O)N(C(=O)N1CO[C@@]2(C(=O)OC)Cc3cc(Cl)ccc3C2=N1)c1ccc(OC(F)(F)F)cc1 [INDOXACARB] showed a mortality at 2 ppm (Aedes aegypti [2]) of 40%.

For CC1(C)CC[C@]2(C(=O)O)CC[C@]3(C)C(=CC[C@@H]4[C@@]5(C)CC[C@H](O[C@@H]6O[C@H](CO)[C@@H](O)[C@H](O)[C@H]6O)[C@@](C)(CO)[C@@H]5CC[C@]43C)[C@@H]2C1 [Hederagenin-3-O-beta-D-glucopyranoside], the LC50 (Planorbella trivolvis) was 30 µM.

With CC1=CC(=O)C2C3C1C2(C)CCCC3(C)C (stereo unspecified) [VULGARONE B] the mortality at 75 µM (Pomacea canaliculata [5]) was 100% and the LC50 (Pomacea canaliculata [4]) was 30 µM.

Compound CC(C)NC(=O)/C=C/C=C/CCCCCCc1ccc2c(c1)OCO2 has a mortality at 2 ppm (Aedes aegypti [2]) of 80%.
